Data taken from patent US10981892B2, “Acyl sulfonamides that are Bcl family antagonists for use in clinical management of conditions caused or mediated by senescent cells and for treating cancer” (Unity Biotechnology, Inc., priority 2018, dated 2021).
“Also recorded” adds a separate entry of the source. Values belong to the compound of their own block, whether it stands above or below them.

Experiments:
[1] = test system: cigarette smoke induced COPD model, 3MR or INK-ATTAC mice; assay: Cigarette smoke (CS) induced COPD model, oxygen saturation; assay type: in vivo, mouse; details: after two months of cigarette smoke exposure, compared with untreated controls
Method: As a model for chronic obstructive pulmonary disease (COPD), mice were exposed to cigarette smoke. The effect of a senolytic agent on the mice exposed to smoke is assessed by senescent cell clearance, lung function, and histopathology. The mice used in this study include the 3MR strain, described in US 2017/0027139 A1 and in Demaria et al., Dev Cell. 2014 Dec. 22; 31(6): 722-733. […] The enzyme in the transgene is placed under control of the p16 promoter, which causes it to be specifically expressed in senescent cells. Treatment of the mice with GCV eliminates senescent cells. Other mice used in this study include the […] strain, described in US 2015/0296755 A1 and in Baker et al., Nature 2011 Nov. 2; 479(7372):232-236. The […] mouse has a transgene encoding switchable caspase 8 under control of the p16 promoter. The caspase 8 can be activated by treating the mice with the switch compound AP20187, whereupon the caspase 8 directly induces apoptosis in senescent cells, eliminating them from the mouse. To conduct the experiment, six-week-old 3MR (n=35) or […]=35) mice were chronically exposed to cigarette smoke generated from a Teague TE-10 system, an automatically-controlled cigarette smoking machine that produces a combination of side-stream and mainstream cigarette smoke in a chamber, which is transported to a collecting and mixing chamber where varying amounts of air is mixed with the smoke mixture. The COPD protocol was adapted from the COPD core facility at Johns Hopkins University (Rangasamy et al., 2004, J. Clin. Invest. 114:1248-1259; Yao et al., 2012, J. Clin. Invest. 122:2032-2045). Mice received a total of 6 hours of cigarette smoke exposure per day, 5 days a week for 6 months. Each lighted cigarette (3R4F research cigarettes containing 10.9 mg of total particulate matter (TPM), 9.4 mg of tar, and 0.726 mg of nicotine, and 11.9 mg carbon monoxide per cigarette [University of Kentucky, Lexington, Ky.]) was puffed for 2 seconds and once every minute for a total of 8 puffs, with the flow rate of 1.05 L/min, to provide a standard puff of 35 cm3. The smoke machine was adjusted to produce a mixture of side stream smoke (89%) and mainstream smoke (11%) by smoldering 2 cigarettes at one time. The smoke chamber atmosphere was monitored for total suspended particulates (80-120 mg/m3) and carbon monoxide (350 ppm). […] An equal number of mice received the corresponding vehicle. […] After two months of cigarette smoke (CS) exposure, lung function was assessed by monitoring oxygen saturation using the MouseSTAT PhysioSuiteTM pulse oximeter (Kent Scientific). […] Mice were monitored for 30 seconds and the average peripheral capillary oxygen saturation (SpO2) measurement over this duration was calculated.

[2] = test system: osteoarthritis model, C57BL/6J mice; assay: Osteoarthritis model (ACL surgery), intra-articular injection; assay type: in vivo, mouse
Method: This example illustrates the testing of an MDM2 inhibitor in a mouse model for treatment of osteoarthritis. It can be adapted mutatis mutandis to test and develop Bcl inhibitors for use in clinical therapy.
The model was implemented as follows. C57BL/6J mice underwent surgery to cut the anterior cruciate ligament of one rear limb to induce osteoarthritis in the joint of that limb. During week 3 and week 4 post-surgery, the mice were treated with 5.8 μg of Nutlin-3A (n=7) per operated knee by intra-articular injection, q.o.d. for 2 weeks. At the end of 4 weeks post-surgery, joints of the mice were monitored for presence of senescent cells, assessed for function, monitored for markers of inflammation, and underwent histological assessment.
Two control groups of mice were included in the studies performed: one group comprising C57BL/6J or 3MR mice that had undergone a sham surgery (n=3) (i.e., surgical procedures followed except for cutting the ACL) and intra-articular injections of vehicle parallel to the GCV (ganciclovir) treated group; and one group comprising C57BL/6J or 3MR mice that had undergone an ACL surgery and received intra-articular injections of vehicle (n=5) parallel to the GCV-treated group. RNA from the operated joints of mice from the Nutlin-3A treated mice was analyzed for expression of SASP factors (mmp3, IL-6) and senescence markers (p16). qRT-PCR was performed to detect mRNA levels.
Function of the limbs was assessed 4 weeks post-surgery by a weight bearing test to determine which leg the mice favored. The mice were allowed to acclimate to the chamber on at least three occasions prior to taking measurements. Mice were maneuvered inside the chamber to stand with one hind paw on each scale. The weight that was placed on each hind limb was measured over a three second period. At least three separate measurements were made for each animal at each time point. The results were expressed as the percentage of the weight placed on the operated limb versus the contralateral unoperated limb.

[3] = test system: atherosclerosis model, LDLR-/- mice; assay: Atherosclerosis model, LDLR-/- mice fed a high fat diet, systemic administration; assay type: in vivo, mouse
Method: This example illustrates the testing of an MDM2 inhibitor in a mouse model for treatment of atherosclerosis. The test compounds are administered systemically rather than locally. The model is done in an LDLR−/− strain of mice, which are deficient in the receptor for low-density lipoprotein. The experiments described here can be adapted mutatis mutandis to test and develop other types of inhibitors for use in clinical therapy.
Two groups of LDLR−/− mice (10 weeks) are fed a high fat diet (HFD) (Harlan Teklad TD.88137) having 42% calories from fat, beginning at Week 0 and throughout the study. Two groups of LDLR−/− mice (10 weeks) are fed normal chow (−HFD). From weeks 0-2, one group of HFD mice and —HFD mice are treated with Nutlin-3A (25 mg/kg, intraperitoneally). One treatment cycle is 14 days treatment, 14 days off. Vehicle is administered to one group of HFD mice and one group of −HFD mice. At week 4 (timepoint 1), one group of mice are sacrificed and to assess presence of senescent cells in the plaques. For the some of the remaining mice, Nutlin-3A and vehicle administration is repeated from weeks 4-6. At week 8 (timepoint 2), the mice are sacrificed and to assess presence of senescent cells in the plaques. The remaining mice are treated with Nutlin-3A or vehicle from weeks 8-10. At week 12 (timepoint 3), the mice are sacrificed and to assess the level of plaque and the number of senescent cells in the plaques.
Plasma lipid levels were measured in LDLR−/− mice fed a HFD and treated with Nutlin-3A or vehicle at timepoint 1 as compared with mice fed a —HFD (n=3 per group). Plasma was collected mid-afternoon and analyzed for circulating lipids and lipoproteins.
At the end of timepoint 1, LDLR−/− mice fed a HFD and treated with Nutlin-3A or vehicle were sacrificed (n=3, all groups), and the aortic arches were dissected for RT-PCR analysis of SASP factors and senescent cell markers. Values were normalized to GAPDH and expressed as fold-change versus age-matched, vehicle-treated LDLR−/− mice on a normal diet.
At the end of timepoint 2, LDLR−/− mice fed a HFD and treated with Nutlin-3A or vehicle (n=3 for all groups) were sacrificed, and aortic arches were dissected for RT-PCR analysis of SASP factors and senescent cell markers. Values were normalized to GAPDH and expressed as fold-change versus age-matched, vehicle-treated LDLR−/− mice on a normal diet.
At the end of timepoint 3, LDLR−/− mice fed a HFD and treated with Nutlin-3A or vehicle (n=3 for all groups) were sacrificed, and aortas were dissected and stained with Sudan IV to detect the presence of lipid. Body composition of the mice was analyzed by MRI, and circulating blood cells were counted by Hemavet™.

[4] = background statement; cited from earlier work

SMILES: Nc1nc(O)c2ncn(COC(CO)CO)c2n1 [ganciclovir]
SpO2 levels [1]: statistically significant increases

SMILES: CC1(C)CCC(c2ccc(Cl)cc2)=C(CN2CCN(c3ccc(C(=O)NS(=O)(=O)c4ccc(N[C@H](CCN5CCOCC5)CSc5ccccc5)c(S(=O)(=O)C(F)(F)F)c4)cc3)CC2)C1 [ABT-263, Navitoclax]
SpO2 levels [1]: statistically significant increases

platelet and lymphocyte counts versus vehicle treated mice ([3]; timepoint 3, Hemavet): equivalent
SMILES: COc1ccc(C2=N[C@@H](c3ccc(Cl)cc3)[C@@H](c3ccc(Cl)cc3)N2C(=O)N2CCNC(=O)C2)c(OC(C)C)c1 [Nutlin-3A]
clearance of senescent cells from the joint ([2]; 5.8 μg per knee intra-articular): cleared senescent cells from the joint | weight bearing: favoring of unoperated over operated hind limb ([2]; 4 weeks post-surgery): abrogated this effect | histopathology: destruction of the proteoglycan layer ([2]; joint tissue after ACL surgery): completely abrogated this effect | expression of p16, IL-6, and MMP13 in the tissue ([2]; operated joint, qRT-PCR, 4 weeks post-surgery, 5.8 μg per knee intra-articular q.o.d. 2 weeks): reduced the expression back to below the level of the controls; also recorded: ameliorated | SpO2 levels [1]: statistically significant increases | expression of SASP factors and senescent cell markers in aortic arch, timepoint 2 ([3]; HFD, multiple treatment cycles, 25 mg/kg i.p., RT-PCR): reduced expression of most markers | expression of SASP factors and senescent cell markers in aortic arch, timepoint 1 ([3]; HFD, one treatment cycle, 25 mg/kg i.p., MMP3, MMP13, PAI1, p21, IGFBP2, IL-1A, IL-1B, RT-PCR): reduced expression of several SASP factors and senescent cell markers | reduction of surface area covered by plaques in the descending aorta ([3]; HFD, timepoint 3 (week 12), Sudan IV staining): about 45% | mass and body fat composition ([3]; mice fed the high fat diet, MRI, timepoint 3): decreased

SMILES: CC[C@H](C(=O)N1CCCC[C@H]1C(=O)O[C@H](CCc1ccc(OC)c(OC)c1)c1cccc(OCC(=O)NCC(CNC(=O)COc2cccc([C@@H](CCc3ccc(OC)c(OC)c3)OC(=O)[C@@H]3CCCCN3C(=O)[C@@H](CC)c3cc(OC)c(OC)c(OC)c3)c2)CN(C)C)c1)c1cc(OC)c(OC)c(OC)c1 [AP2018]
SpO2 levels [1]: statistically significant increases

SMILES: CN(C)CC[C@H](CSc1ccccc1)Nc1ccc(S(=O)(=O)NC(=O)c2ccc(N3CCN(Cc4ccccc4-c4ccc(Cl)cc4)CC3)cc2)cc1[N+](=O)[O-] [ABT-737]
dose-limiting toxicity in human patients [4]: dose-limiting thrombocytopenia
